From article PMC10246002 (bioRxiv, 2023)

Tested on: human tracheobronchial epithelial cells (hTECs)
Assay type: cell-based
Settings: hTEC ALI culture with IL-13, resazurin assay

Cc1ccc(-n2nc(C(C)(C)C)cc2NC(=O)Nc2ccc(OCCN3CCOCC3)c3ccccc23)cc1 [NuP-43, BIRB-796]
number of viable cells: no significant effects
